Where a name gives a salt, the structure may show the parent alone. Where only a bound is given, the exact number is not on record here.

A word on the DC50: it is the concentration at which degradation of the target reaches its halfway point.

In experiment [1] the test system is Alternaria asthma mouse model. The experiment in a line: Alternaria asthma mouse model: cell counts and cytokines in BALF. The note with it: for total cell counts in BALF: 30 and 100 mg/kg once daily for 7 days subcutaneous, vs vehicle P<0.05. Type of experiment: in vivo. As for the experimental part: The effect of Compound 17 was studied in an Alternaria asthma mouse model. On days 1-5, male Balb/c mice under isoflurane anesthesia were challenged by instilling solution of 5 μg (protein weight) Alternaria in 40 μL of PBS into each nostril. Compound 17 was administered two days prior to Alternaria challenge (defined day as day −1) and animals were treated with vehicle (10% DMSO/45% PEG-400/45% ‘20% HP-3-CD’ in water) or Compound 17 (30 and 100 mg/kg) once daily for 7 days (defined as day −1 to day 5) by subcutaneous injection. Total and differential cell counts of the BALF fluid samples were measured using a XT-2000iV analyzer (Sysmex). Cytokine concentrations of BALF supernatant were measured in samples from all groups using ELISA kit (Biotechne, UK). Statistical significance is calculated using one-way ANOVA followed by Dunnett's post-tests in which the treatment groups were compared to vehicle control (P<0.05).

Experiment [2] concerns the target T1, catalytic domain of human PARP14 (residues 1611 to 1801) with NanoLuc tag (Homo sapiens, UniProt Q460N5).
T1 construct: expressed in transfected cells; host or cells: HEK-293T cells (ATCC), plasmid pRTX240 in pcDNA3.1(-)
T1 sequence (Q460N5 1611-1801): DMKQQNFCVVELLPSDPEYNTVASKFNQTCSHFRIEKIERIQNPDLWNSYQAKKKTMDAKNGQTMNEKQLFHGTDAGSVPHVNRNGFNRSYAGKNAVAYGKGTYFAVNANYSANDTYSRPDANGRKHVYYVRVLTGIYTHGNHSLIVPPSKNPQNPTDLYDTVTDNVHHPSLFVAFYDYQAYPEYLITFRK
Description: NanoLuc assay for the degradation of PARP14. Type of experiment: cell-based. The conditions noted are these: Assay A; NanoLuc-PARP14 overexpressed in HEK-293T cells; 2 hours at 37 degrees; luminescence. The procedure, abridged: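 HEK-293T cells transiently transfected 24 hrs with N-terminal NanoLuc-tagged human PARP14 catalytic domain (residues 1611-1801), then exposed to compound dose response for 2 hours at 37 degrees. NanoGlo luminescence expressed as % of 0.1% DMSO wells; DC50 from floating 4-parameter fit, reported as banded ranges.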

Experiment [3] has as its target T2, PARP14 (Homo sapiens, UniProt Q460N5).
T2 construct: engineered to contain a HiBiT tag on both alleles of the PARP14 gene; endogenous in cells; host or cells: Jurkat cells stably expressing LgBiT (Promega), with CRISPR/Cas9 knock-in of HiBiT at the PARP14 locus
The experiment in a line: HiBiT assay for the degradation of PARP14 (HiBiT tagged PARP14 in LgBiT expressing Jurkat cells). Type of experiment: cell-based. The conditions noted are these: Assay B, 37° C. for 2 or 24 hours, luminescence, read-out: DC50. As for the experimental part: Jurkat cells stably transfected with LgBiT (Promega) were engineered to contain a HiBiT tag on both alleles of the PARP14 gene (Genbank Accession Number: NM_017554) via CRISPR/Cas9 editing. The HiBiT tag is an 11 amino acid tag created by Promega that associates with LgBiT protein to form the NanoLuc® tag on the C-terminus of PARP14. Clones were isolated and confirmed for the HiBiT tag via Sanger sequencing.
Degradation of PARP14 protein was assessed by measuring the luminescence of the HiBiT tag associating with the LgBiT protein as a proxy for the PARP14 protein. Jurkat cells were diluted to 250,000 cells per mL and then added to assay plate (Corning 3574) using a Multidrop (Thermo Fisher) to add 20 μL per well of the 384 well plate, resulting in 5,000 cells per well. 20 nL of a dose response curve diluted in DMSO of each test compound was added to the cell plate using a Mosquito (TTP Labtech) and the plate was incubated at 37° C. for 2 or 24 hours. Assay plate was brought to room temperature then 5 μL per well of Live Cell Substrate (Promega) was added to the plate. Luminescence was measured on an Envision (Perkin Elmer).
The average DMSO was calculated from 32 wells containing 0.1% DMSO only in columns 12 and 24 of the assay plate. The % of DMSO values were calculated as described below: […]
The % of DMSO values were plotted as a function of compound concentration and the following 4-parameter fit was applied to derive the DC50 values:
where top, bottom, and Hill Coefficient are allowed to float. Y is the % of DMSO and X is the compound concentration.
DC50 data for the Example compounds is provided below in Table 2 (“+” is <0.03 μM; “++” is ≥0.03 μM).
(In general: The HiBiT peptide binds its large partner to form an active luciferase.)

Setting [4] is: male Balb/c mice, Alternaria challenge, 30 and 100 mg/kg once daily 7 days s.c., dose-dependent starting from 30 mg/kg.

T2 sequence (Q460N5 whole entry): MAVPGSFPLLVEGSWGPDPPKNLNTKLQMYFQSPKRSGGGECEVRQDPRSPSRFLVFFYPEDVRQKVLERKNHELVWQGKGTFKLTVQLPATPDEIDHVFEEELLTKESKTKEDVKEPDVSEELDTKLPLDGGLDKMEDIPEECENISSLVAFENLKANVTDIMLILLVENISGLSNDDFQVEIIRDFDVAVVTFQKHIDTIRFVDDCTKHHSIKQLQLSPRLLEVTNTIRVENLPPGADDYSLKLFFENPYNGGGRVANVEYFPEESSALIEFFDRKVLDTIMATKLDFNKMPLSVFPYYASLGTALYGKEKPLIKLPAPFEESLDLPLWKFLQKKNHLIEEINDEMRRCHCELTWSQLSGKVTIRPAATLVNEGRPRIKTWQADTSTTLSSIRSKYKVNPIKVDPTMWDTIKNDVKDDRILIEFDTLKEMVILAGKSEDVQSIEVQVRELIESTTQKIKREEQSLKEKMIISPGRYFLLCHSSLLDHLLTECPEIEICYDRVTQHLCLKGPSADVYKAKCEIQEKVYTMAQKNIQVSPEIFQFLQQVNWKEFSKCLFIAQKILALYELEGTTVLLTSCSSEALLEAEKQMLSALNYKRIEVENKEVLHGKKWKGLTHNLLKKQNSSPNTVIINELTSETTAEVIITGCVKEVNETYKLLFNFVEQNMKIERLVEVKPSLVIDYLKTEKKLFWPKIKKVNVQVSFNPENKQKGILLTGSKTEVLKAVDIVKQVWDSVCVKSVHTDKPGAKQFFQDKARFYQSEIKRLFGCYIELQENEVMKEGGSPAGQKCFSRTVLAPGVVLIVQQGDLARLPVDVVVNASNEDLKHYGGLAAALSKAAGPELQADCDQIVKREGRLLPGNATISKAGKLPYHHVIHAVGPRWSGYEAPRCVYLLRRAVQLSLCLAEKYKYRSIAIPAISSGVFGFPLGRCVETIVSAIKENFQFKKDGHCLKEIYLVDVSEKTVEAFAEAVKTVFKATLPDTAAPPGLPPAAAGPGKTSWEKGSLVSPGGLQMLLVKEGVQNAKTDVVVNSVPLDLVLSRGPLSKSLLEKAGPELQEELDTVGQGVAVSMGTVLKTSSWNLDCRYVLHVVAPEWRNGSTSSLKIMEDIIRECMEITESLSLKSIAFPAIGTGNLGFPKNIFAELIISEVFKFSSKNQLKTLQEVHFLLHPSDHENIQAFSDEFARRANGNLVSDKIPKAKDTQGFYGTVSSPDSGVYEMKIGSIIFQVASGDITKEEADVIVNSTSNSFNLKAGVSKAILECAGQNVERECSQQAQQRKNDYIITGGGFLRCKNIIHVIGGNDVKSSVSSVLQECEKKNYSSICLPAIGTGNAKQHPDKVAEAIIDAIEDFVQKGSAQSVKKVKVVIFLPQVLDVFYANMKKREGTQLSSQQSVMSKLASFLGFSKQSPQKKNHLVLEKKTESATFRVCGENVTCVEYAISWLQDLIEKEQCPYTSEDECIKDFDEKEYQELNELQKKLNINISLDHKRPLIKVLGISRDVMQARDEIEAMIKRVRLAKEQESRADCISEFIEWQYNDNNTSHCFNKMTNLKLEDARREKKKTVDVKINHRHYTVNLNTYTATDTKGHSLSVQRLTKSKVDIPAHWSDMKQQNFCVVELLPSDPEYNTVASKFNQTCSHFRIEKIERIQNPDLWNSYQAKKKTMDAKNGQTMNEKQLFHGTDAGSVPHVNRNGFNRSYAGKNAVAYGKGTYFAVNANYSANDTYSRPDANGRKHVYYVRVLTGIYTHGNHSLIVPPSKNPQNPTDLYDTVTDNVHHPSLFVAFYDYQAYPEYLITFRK

Turning to `O=C1CCC(Nc2ccc(C3CCN(CC4CCN(C(=O)CN5CCC(SCc6nc7cc(OCC8CCOCC8)cc(F)c7c(=O)[nH]6)CC5)CC4)CC3)cc2)C(=O)N1` (stereo not drawn) [Example 17, 3-((4-(1-((1-(2-(4-(((5-fluoro-4-oxo-7-((tetrahydro-2H-pyran-4-yl)methoxy)-3,4-dihydroquinazolin-2-yl)methyl)thio)piperidin-1-yl)acetyl)piperidin-4-yl)methyl)piperidin-4-yl)phenyl)amino)piperidine-2,6-dione], the “eosinophil in BALF” value in experiment [1] (FIG. 2A legend, dose-dependent starting from 100 mg/kg) is on record as “significantly reduces”. Moreover, the “cytokine IL-33 in BALF” value in experiment [1] (FIG. 2B legend, dose-dependent starting from 100 mg/kg) is “significantly reduces”; in experiment [1] (setting [4]) it was “significantly reduces”. For the same compound, the “cytokine IL-4 in BALF” value is given as “significantly reduces” in experiment [1] (FIG. 2C legend, dose-dependent starting from 100 mg/kg) and “significantly reduces” in experiment [1] (setting [4]). In addition, the “cytokine IL-5 in BALF” value is reported as “significantly reduces” in experiment [1] (FIG. 2D legend, dose-dependent starting from 100 mg/kg) and “significantly reduces” in experiment [1] (setting [4]). Besides, the “eosinophils in BALF” value in experiment [1] (setting [4]) is “significantly reduces”. For the same compound, the “total cell counts in BALF” value in experiment [1] (male Balb/c mice, Alternaria challenge, dose-dependent starting from 30 mg/kg) is given as “dose-dependent reduction”; in experiment [1] (male Balb/c mice, Alternaria challenge, dose-dependent starting from 30 mg/kg, listed as Compound 17), “significantly reduces”. For the same compound, the DC50 in experiment [2] is below 100 nM.

In the case of `O=C1CCC(Nc2ccc(N3CCC(N4CCC(SCc5nc6cc(C#CC7CC7)cc(F)c6c(=O)[nH]5)CC4)CC3)c(F)c2)C(=O)N1` (stereo not drawn) [Example 67, 3-((4-(4-(((7-(cyclopropylethynyl)-5-fluoro-4-oxo-3,4-dihydroquinazolin-2-yl)methyl)thio)-[1,4′-bipiperidin]-1′-yl)-3-fluorophenyl)amino)piperidine-2,6-dione formate], in experiment [3], the DC50 is below 30 nM.

Values taken from US20240051946A1, “TARGETED PROTEIN DEGRADATION OF PARP14 FOR USE IN THERAPY” (Ribon Therapeutics, Inc., priority 2022, published 2024).
